Columns and labels:
[1] = biological target: Bovine cardiac myosin (Bos taurus (Bovine), UniProt Q9BE39); assay: Cardiac muscle myosin II actin-activated ATPase assay (NADH-coupled); assay type: biochemical; design: key to Ratio CMMII:NMII Ki/EC50: NMII-sel: no Ki value for cardiac myosin II could be determined; the compounds had no detectable inhibitory properties versus the cardiac myosin II; conditions: for Ki: 300 nM cardiac myosin, 10 μM actin, 25° C., read-out: CMMII KI; for Ratio CMMII:NMII Ki/EC50: cardiac myosin II Ki over nonmuscle myosin II EC50
Source text: (§1) The cardiac muscle myosin II actin-activated ATPase assay is a biochemical assay. Specifically, it is an NADH (nicotinamide adenine dinucleotide)-coupled ATPase assay that relies on NADH fluorescence as a readout. Cardiac myosin is a mechanochemical energy transducer that hydrolyzes ATP to generate force in the presence of its activator, F-actin. The resulting ADP is regenerated to ATP by pyruvate kinase (PK) that transforms one molecule of phosphoenolpyruvate (PEP) to pyruvate in parallel. Subsequently, pyruvate is reduced to lactate by lactate dehydrogenase (LDH) that, in turn, oxidizes one molecule of NADH to NAD. Therefore, the decrease in NADH concentration as a function of time equals the ATP hydrolysis rate. Bovine cardiac myosin is obtained from a commercial source, Cytoskeleton. PK, LDH, ATP, PEP, and NADH are obtained from Sigma. F-actin is prepared in house from Rabbit Muscle Acetone Powder. The assay is run at 25° C. in 384 well black-wall polystyrene microplates with a total volume of 20 μl per well. NADH fluorescence is monitored for 30 minutes with an EnVision Multimode Plate Reader. The slope of the fluorescence response, which is proportional to the reaction rate, is determined by simple linear regression. Final assay conditions are 300 nM cardiac myosin, 10 μM actin, 40 U/ml LDH, 200 U/ml PK, 220 μM NADH, 1 mM PEP, 1 mM ATP in a buffer containing 10 mM 3-(N-morpholino)propanesulfonic acid (pH=7.0), 2 mM MgCl2, 0.15 mM ethylene glycol-bis(p-aminoethyl ether)-N,N,N′,N′-tetraacetic acid, 0.1 mg/mL bovine serum albumin, 0.5% (V/V) dimethyl sulfoxide (DMSO) and 1 mM dithiothreitol. Prior to testing the inhibitory activity of the compounds, a two-fold dilution series starting at 10 mM compound concentration is prepared in DMSO. Subsequently, 100 nl is transferred to each well of the measuring plate containing a mixture of myosin, LDH and PK. The enzymatic reaction is started with the addition of a mixture containing ATP, PEP, NADH and actin. The highest final compound concentration is 50 uM. 20 μM para-aminoblebbistatin in 0.5% DMSO serves as the positive control and 0.5% DMSO alone is the negative control. Reaction rates are determined by using the fluorescence responses of a dilution series of NADH included in all plates and plotted as a function of inhibitor concentration. All measurements are carried out in triplicate. Inhibitory constants are determined by fitting the 16 point dose-response data to a quadratic equation corresponding to a simple one-to-one binding model.

[2] = biological target: Rabbit skeletal myosin; assay: Skeletal muscle myosin II actin-activated ATPase assay; assay type: biochemical; conditions: 20 nM skeletal muscle myosin II; read-out: SKMMII KI
Source text: as §1
The skeletal muscle myosin II actin-activated ATPase assay is performed the same as for cardiac muscle myosin II with the following exceptions: Rabbit skeletal myosin is obtained from Cytoskeleton and the final assay conditions contain 20 nM skeletal muscle myosin II.

[3] = Photostability, percentage remaining undegraded under illumination or in the dark; conditions: for Photostability 4 hours: percentage remaining undegraded after 4 hours illumination; for Photostability 24 hours: percentage remaining undegraded after 24 hours illumination; for Photostability Dark (24 h): percentage remaining undegraded in the dark

Chain of Bovine cardiac myosin (Q9BE39 whole entry): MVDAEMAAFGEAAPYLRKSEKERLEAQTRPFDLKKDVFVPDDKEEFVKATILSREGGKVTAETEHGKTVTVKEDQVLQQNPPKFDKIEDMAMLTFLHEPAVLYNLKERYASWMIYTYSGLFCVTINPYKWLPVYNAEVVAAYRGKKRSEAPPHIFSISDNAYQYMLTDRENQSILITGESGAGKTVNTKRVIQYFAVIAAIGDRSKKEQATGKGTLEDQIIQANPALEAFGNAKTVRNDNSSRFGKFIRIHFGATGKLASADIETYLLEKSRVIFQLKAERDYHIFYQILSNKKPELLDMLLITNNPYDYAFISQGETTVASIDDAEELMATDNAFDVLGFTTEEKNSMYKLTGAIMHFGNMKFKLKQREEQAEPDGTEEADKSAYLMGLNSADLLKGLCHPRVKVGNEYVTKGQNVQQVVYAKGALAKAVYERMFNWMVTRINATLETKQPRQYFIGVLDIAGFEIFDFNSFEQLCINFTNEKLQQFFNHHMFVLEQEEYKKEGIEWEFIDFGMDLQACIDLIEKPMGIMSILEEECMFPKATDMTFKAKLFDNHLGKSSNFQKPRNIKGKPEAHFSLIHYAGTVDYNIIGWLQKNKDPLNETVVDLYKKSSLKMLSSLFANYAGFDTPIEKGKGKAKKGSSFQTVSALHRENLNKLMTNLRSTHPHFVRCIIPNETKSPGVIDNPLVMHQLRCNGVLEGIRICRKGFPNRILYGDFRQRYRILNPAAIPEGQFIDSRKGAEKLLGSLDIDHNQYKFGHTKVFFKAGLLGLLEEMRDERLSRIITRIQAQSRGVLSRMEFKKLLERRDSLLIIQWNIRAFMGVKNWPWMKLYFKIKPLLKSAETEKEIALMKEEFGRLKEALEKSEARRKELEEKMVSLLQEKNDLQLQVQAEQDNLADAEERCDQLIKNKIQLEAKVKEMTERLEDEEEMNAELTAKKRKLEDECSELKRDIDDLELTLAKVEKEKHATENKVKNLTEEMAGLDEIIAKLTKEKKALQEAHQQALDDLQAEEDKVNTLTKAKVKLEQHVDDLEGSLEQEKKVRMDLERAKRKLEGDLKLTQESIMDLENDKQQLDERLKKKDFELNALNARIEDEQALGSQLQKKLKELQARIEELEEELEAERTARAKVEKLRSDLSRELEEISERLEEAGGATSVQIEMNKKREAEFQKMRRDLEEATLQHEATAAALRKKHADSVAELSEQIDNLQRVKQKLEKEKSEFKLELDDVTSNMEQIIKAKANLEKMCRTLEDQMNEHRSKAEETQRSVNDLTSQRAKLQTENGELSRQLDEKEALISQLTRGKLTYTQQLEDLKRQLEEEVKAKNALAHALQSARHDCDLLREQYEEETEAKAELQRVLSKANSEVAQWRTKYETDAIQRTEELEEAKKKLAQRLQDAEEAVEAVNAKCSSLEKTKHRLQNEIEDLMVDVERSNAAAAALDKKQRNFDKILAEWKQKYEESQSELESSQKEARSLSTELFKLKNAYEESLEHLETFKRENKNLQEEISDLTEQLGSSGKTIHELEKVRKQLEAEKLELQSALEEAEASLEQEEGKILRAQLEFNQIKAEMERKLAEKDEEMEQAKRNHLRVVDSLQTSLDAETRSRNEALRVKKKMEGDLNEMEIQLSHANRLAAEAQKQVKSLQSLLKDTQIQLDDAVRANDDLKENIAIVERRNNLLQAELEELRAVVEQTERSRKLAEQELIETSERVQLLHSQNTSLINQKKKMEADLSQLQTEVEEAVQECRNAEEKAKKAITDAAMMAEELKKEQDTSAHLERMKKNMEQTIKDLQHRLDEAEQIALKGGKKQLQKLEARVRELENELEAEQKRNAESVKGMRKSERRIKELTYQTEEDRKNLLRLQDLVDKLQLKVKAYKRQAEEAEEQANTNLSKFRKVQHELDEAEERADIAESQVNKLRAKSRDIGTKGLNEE
Chain of Bovine cardiac myosin (P85100 whole entry partner): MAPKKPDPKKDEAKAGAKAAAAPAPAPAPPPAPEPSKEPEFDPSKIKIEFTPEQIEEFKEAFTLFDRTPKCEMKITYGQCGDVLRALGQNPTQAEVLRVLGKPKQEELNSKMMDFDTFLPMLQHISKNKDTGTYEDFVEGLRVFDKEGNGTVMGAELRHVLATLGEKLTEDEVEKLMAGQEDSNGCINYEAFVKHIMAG
Chain of Bovine cardiac myosin (Q3SZE5 whole entry partner): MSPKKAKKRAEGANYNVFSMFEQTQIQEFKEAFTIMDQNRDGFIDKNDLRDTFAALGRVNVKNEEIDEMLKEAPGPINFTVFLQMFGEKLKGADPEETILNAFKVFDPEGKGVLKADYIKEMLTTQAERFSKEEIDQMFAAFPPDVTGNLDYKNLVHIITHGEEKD

Row | Compound | Ki [1] [µM] | Ratio CMMII:NMII Ki/EC50 [1] | Ki [2] [µM] | Photostability 4 hours [3] [%] | Photostability 24 hours [3] [%] | Photostability Dark (24 h) [3] [%]
1 | COc1cccc(N2CC[C@@]3(O)C(=O)c4cc(C)ccc4N=C23)c1 [BPN-0025044] | 28 | 5.4 | 7 | 90.3 | 12.1 | >99
2 | O=C1c2cc(C(F)(F)F)ccc2N=C2N(c3ccccc3)CC[C@@]12O [BPN-0025110] | 22 | 6.9 | 8 | 6.6 | 2.6 | >99
3 | Cc1ccc2c(c1)C(=O)[C@]1(O)CCN(c3cccc(Br)c3)C1=N2 [BPN-0025240] | 400 | 39.2 | 35 | 93.0 | 28.6 | 94.7
4 | Cc1ccc2c(c1)C(=O)[C@]1(O)CCN(c3ccc(C)c(Cl)c3)C1=N2 [BPN-0025254] |  | NMII-sel | 7.7 | 92.5 | 39.4 | >99
5 | Cc1ccc2c(c1)C(=O)[C@]1(O)CCN(c3ccc(C)c(C)c3)C1=N2 [BPN-0025903] |  | NMII-sel | 11 | 39.8 | 7.5 | 98.3
6 | COc1cc(N2CC[C@@]3(O)C(=O)c4cc(C)ccc4N=C23)ccn1 [BPN-0025919] | 18 | 4.6 | 1.8 |  |  | 
7 | Cc1ccc2c(c1)C(=O)[C@@]1(O)C(=N2)N(c2ccccc2)CC1(C)C [BPN-0026282] |  | NMII-sel |  | 64.0 | 7.0 | >99
8 | Cc1ccc2c(c1)C(=O)[C@]1(O)CCN(c3ccc4occc4c3)C1=N2 [BPN-0026283] |  | NMII-sel | 5 | 39.4 | 10.8 | 92.0
9 | Cc1ccc2c(c1)C(=O)[C@]1(O)CCN(c3ccc4ccoc4c3)C1=N2 [BPN-0026285] | 9.1 | 5.7 | 0.9 | 51.9 | 8.2 | 94.7
10 | Cc1ccc2c(c1)C(=O)[C@]1(O)CCN(c3ccc(C#N)c(C)c3)C1=N2 [BPN-0026324] | 30 | 13.6 | 3.5 | 98.5 | 90.4 | >99
11 | Cc1ccc2c(c1)C(=O)[C@]1(O)CCN(c3ccc(Cl)c(C)c3)C1=N2 [BPN-0026325] |  | NMII-sel | 13 | 89.0 | 14.0 | 97.8
12 | Cc1cc2c(cc1F)C(=O)[C@]1(O)CCN(c3ccccc3)C1=N2 [BPN-0026387] | 13 | 5.2 | 1.2 | 85.2 | 18.0 | 93.5
13 | COc1ccc(N2CC[C@@]3(O)C(=O)c4cc(C(F)(F)F)ccc4N=C23)cc1 [BPN-0026393] | 11 | 3.2 | 1.7 | 97.9 | 75.0 | >99
14 | Cc1ccc2c(c1)C(=O)[C@]1(O)CCN(c3ccc(C#N)c(Cl)c3)C1=N2 [BPN-0026394] |  | NMII-sel | 4.8 | >99 | 98.7 | >99
15 | O=C1c2cc(Cl)ccc2NC2N(c3ccc4ccoc4c3)CC[C@@]12O (some centres unmarked) [BPN-0026401] | 50 | 16.7 | 3.3 | 81.2 | 9.6 | 97.7
16 | Cc1ncc(N2CC[C@@]3(O)C(=O)c4cc(C(F)(F)F)ccc4N=C23)s1 [BPN-0026404] | 23 | 7.0 | 3.6 |  |  | 
17 | Cn1cc(N2CC[C@@]3(O)C(=O)c4cc(C(F)(F)F)ccc4N=C23)cn1 [BPN-0026413] | 110 | 3.1 | 33 | 94.3 | 82.2 | 97.3
18 | Cc1cc(N2CC[C@@]3(O)C(=O)c4cc(Cl)ccc4N=C23)ccc1C#N [BPN-0026457] |  | NMII-sel | 15 | 98.6 | 77.1 | >99
19 | O=C1c2cc(C(F)(F)F)ccc2N=C2N(c3ccc4ccoc4c3)CC[C@@]12O [BPN-0026495] |  | NMII-sel | 20 | 80.9 | 15.9 | 93.4
20 | COc1cccc(N2CC[C@@]3(O)C(=O)c4cc(C)c(C)cc4N=C23)c1 [BPN-0026496] | 83 | 31.9 | 15 | 41.7 | 3.5 | 97.9
21 | COc1cccc(N2CC[C@@]3(O)C(=O)c4cc(C)c(C)cc4N=C23)c1 [BPN-0026497] | 33 | 15.7 | 9.8 | 82.7 | 6.1 | 97.5
22 | Cc1cc2c(cc1C)C(=O)[C@]1(O)CCN(c3ccc(C#N)cc3)C1=N2 [BPN-0026499] | 5.7 | 12.4 | 0.18 | 97.7 | 84.9 | >99
23 | Cc1cc2c(cc1C)C(=O)[C@]1(O)CCN(c3cccc(Cl)c3)C1=N2 [BPN-0026500] |  | NMII-sel | 23 | 92.2 | 22.8 | >99
24 | Cc1cc2c(cc1F)C(=O)[C@]1(O)CCN(c3ccc(C)c(Cl)c3)C1=N2 [BPN-0026606] |  | NMII-sel |  | 85.9 | 4.1 | 95.5
25 | Cc1ccc(N2CC[C@@]3(O)C(=O)c4cc(Cl)ccc4N=C23)cc1 [BPN-0026609] | 5.5 | 3.7 | 0.43 |  |  | 
26 | Cc1ccc(N2CC[C@@]3(O)C(=O)c4cc(C)c(C(F)(F)F)cc4N=C23)cc1Cl [BPN-0026786] |  | NMII-sel |  | 87.8 | 66.6 | 96.0
27 | Cc1cccc(N2CC[C@@]3(O)C(=O)c4cc(C)c(C(F)(F)F)cc4N=C23)c1 [BPN-0026847] |  | NMII-sel |  | 99.0 | 91.8 | >99
28 | Cc1sc2c(c1C)C(=O)[C@]1(O)CCN(c3cccc(Br)c3)C1=N2 [BPN-0026853] |  | NMII-sel |  | 91.2 | 88.2 | 90.2
29 | O=C1c2cc(C(F)(F)F)ccc2N=C2N(c3ccc4ncsc4c3)CC[C@@]12O [BPN-0027219] |  | NMII-sel |  | 46.2 | 3.8 | 98.3
30 | O=C1c2c(sc3c2CCCC3)N=C2N(c3ccc4ncccc4c3)CC[C@@]12O [BPN-0027240] |  | NMII-sel |  | 94.1 | 74.6 | 98.0

Source: patent US20250163056A1, “NONMUSCLE MYOSIN II INHIBITORS” (The University of Florida Research Foundation, Inc., priority 2018, published 2025)
